Measured values from ChEMBL document CHEMBL4371066, “Synthesis and characterization of a photoresponsive doxorubicin/combretastatin A4 hybrid prodrug” (Bioorg Med Chem Lett, 2019).
The source made the active and inactive calls. No cut-off for these calls is given here.

Columns and labels:
Format in all cases: functional, cell-based
MDA-MB-231 [1] = experiment: Cytotoxicity against human MDA-MB-231 cells assessed as reduction in cell viability at 4 to 8 uM measured after 24 hrs by CCK8 assay
MDA-MB-231 [2] = experiment: Phototoxicity against human MDA-MB-231 cells assessed as reduction in cell viability at 4 to 8 uM irradiated with 50 mW cm'-2 UV light for 6 mins and measured after 24 hrs by CCK8 assay
MDA-MB-231 [3] = experiment: Phototoxicity against human MDA-MB-231 cells assessed as reduction in cell viability at 2 to 8 uM irradiated with 50 mW cm'-2 UV light for 6 mins and measured after 24 hrs by CCK8 assay
MDA-MB-231 [4] = experiment: Cytotoxicity against human MDA-MB-231 cells assessed as reduction in cell viability at 2 to 8 uM measured after 24 hrs by CCK8 assay

How did the Activity (MDA-MB-231 [1]) turn out when `COc1cccc2c1C(=O)c1c(O)c3c(c(O)c1C2=O)C[C@@](O)(C(=O)CO)C[C@@H]3O[C@H]1C[C@H](N)[C@H](O)[C@H](C)O1` was run?
Its Activity is “Active”.

What about the Activity (MDA-MB-231 [2]) of the same compound?
Its Activity is “Active”.

For `COc1ccc(/C=C\c2cc(OC)c(OC)c(OC)c2)cc1O`, which Activity (MDA-MB-231 [3]) is on record?
Its Activity is “Active”.

And the Activity (MDA-MB-231 [4])?
Its Activity is “Active”.
